Experimental data: patent publication US20070238671A1, “Isopeptide Gap Junction Modulators” (priority 2003, published 2007)

What was measured:
human osteoblast cells = assay: Standard tumor promoter assay: Lucifer Yellow dye transfer, DDT-induced uncoupling; type: cell-based; settings: DDT 13 μM for 60 minutes, n=13; control without DDT median 14.5 cells
Excerpt: The compound 1,1-bis(p-chlorophenyl)-2,2,2-trichlorethane, also known as the insecticide DDT, is an inhibitor of gap junctional communication, and has tumor promoting abilities. It inhibits cell-to-cell communication by reducing the gap junction number and size, and exposure to DDT is associated with decreased cellular levels of phosphorylated (active) forms of the gap junction protein Cx43. These actions are considered pivotal for the compound's oncogenic properties (X. Guan, et al. (1996) Carcinogenesis, 17 1791-1798; R. J. Ruch, et al. (1994) Carcinogenesis, 15 301-306); B. V. Madhukar, et al. (1996) Cancer Lett. 106 117-123). As a means of monitoring the therapeutic efficacy of the isopeptides, the effects of the isopeptides on DDT-induced uncoupling in human osteoblast cells can be determined. […]
After harvesting, the mononuclear fraction is washed once with culture medium and centrifuged at 1800 rpm for 10 minutes. Subsequently cells are counted and plated in culture medium at 8×10^6 cells/100 mm dish. […]
After culturing, cells are affixed to a PDMI-2 culture chamber (Medical Systems Corp.), maintained at 37° C. with superfused CO2, on a Zeiss Axiovert microscope. […] A cell in the monolayer is carefully injected with LY for 30 seconds; the micropipette is removed from the cell and after 30 seconds the number of cells that show dye transfer is counted. […]

[1] = system: calcium-induced arrhythmias; assay: Calcium-induced arrhythmia model (Lynch et al.) in mice; type: in vivo, Male NMRI mice; settings: isopeptide 1 nmol/kg i.v. 3 min before CaCl2 infusion; (tarr(testcompound)-tarr(vehicle))x100/tarr(vehicle), time lag to first conduction block
Description: Isopeptides suitable for administration to cardiac cells can be identified in an in vivo model of calcium-induced arrhythmias according to the model of Lynch et al. (1981) J Cardiovasc. Pharmacol. 3: 49-60. Mice (25-30 g) are anaesthetized with a neurolept anaesthetic combination and an i.v. cannula is inserted into the tail vein. A lead II ECG signal is recorded continuously by positioning a stainless steel ECG electrodes on the right forelimb and on the left hind limb. The ground electrode is placed on the right hind limb. The signal is amplified (x 5.000-10.000) and filtered (0.1-150 Hz) via a Hugo Sachs Electronic model 689 ECG module. The analog signal is digitized via a 12 bit data acquisition board (Data Translation model DT321) and sampled at 1000 Hz using the Notocord HEM 3.1 software for Windows NT. After a 10-minute equilibration period, the test sample of peptide is injected into the tail vein. Mice pre-treated with buffer are tested as a measure of the control level in untreated animals. The injection volume is 100 μl in all experiments.
Infusion of CaCl2 (30 mg/ml, 0.1 ml/min≈100 mg/kg/min (calcium chloride-2-hydrate, Riedel-de Haën, Germany)) is started 3 min after i.v. administration of drug or vehicle. The time lag to onset of 2nd degree AV-block is determined as the time from the start of CaCl2 infusion until the first arrhythmic event occurs. An event of 2nd degree AV-block is defined as intermittent failure of the AV conduction characterised by a P-wave without the concomitant QRS complex.
Responses are expressed relative to the time until 2nd degree AV-block occurred in vehicle treated mice. The maximal effect of compounds (e.g., isopeptides, AAP, AAP10 or controls) is determined. […]
An intravenous cannula was inserted into the tail vein. The lead II ECG signal was recorded continuously by positioning of stainless steel ECG electrodes on the right forelimb and on the left hind limb. […]

Row | Compound | number of cells that show dye transfer (median) (human osteoblast cells) | % response [1]
1 | Clc1ccc(C(c2ccc(Cl)cc2)C(Cl)(Cl)Cl)cc1 [DDT, 1,1-bis(p-chlorophenyl)-2,2,2-trichlorethane] | 7 | –
2 | H-Gly-iso-D-Lys(4-methoxybenzoyl)-OH [Compound 18] | – | 16%
3 | H-Gly-iso-D-Lys(4-nitrobenzoyl)-OH [Compound 19] | – | 33%
4 | H-iso-Gln(NH(4-methoxybenzyl))-Ala-OH [Compound 101] | – | 68%
5 | H-iso-Gln(NH(4-methoxybenzyl))-D-Ala-OH [Compound 116] | – | 25%
